Measured values from patent US8975417B2, “Pyrazolopyrrolidine derivatives and their use in the treatment of disease” (Novartis AG, priority 2013, dated 2015).

Columns and labels:
Conditions in all cases: biochemical
His-Brd4(44-477) = His-Brd4(44-477) (Homo sapiens (Human), UniProt O60885); assay: TR-FRET in-vitro binding assay for BRD4
Procedure: (§1) TR-FRET In-Vitro Binding Assays for BRD2, BRD3, and BRD4:
(§2) All assays were performed in 384-well microtiter plates. Each assay plate contained 8-point serial dilutions for 40 test compounds, plus 16 high- and 16 low controls. Liquid handling and incubation steps were done on an Innovadyne Nanodrop Express equipped with a robotic arm (Thermo CatX, Perkin Elmer/Caliper Twister II) and an incubator (Liconic STX40, Thermo Cytomat 2C450). The assay plates were prepared by addition of 50 nl per well of compound solution in 90% DMSO HummingBird nanodispenser (Zinsser Analytic). The assay was started by stepwise addition of 4.5 μL per well of bromo domain protein (50 mM HEPES, pH 7.5, 0.005% Tween20, 0.1% BSA, 50 mM NaCl, 45 nM His-Brd2(60-472) or 45 nM His-Brd3(20-477) or 45 nM His-Brd4(44-477) all proteins produced in-house) and 4.5 μL per well of peptide solution (50 mM HEPES, pH 7.5, 0.005% Tween20, 0.1% BSA, 50 mM NaCl, 60 nM acetyl-histone H4 (AcK 5, 8, 12, 16) (Biosyntan GmbH)). Reactions were incubated at 30° C. for 35 minutes. Subsequently 4.5 μL per well detection mix (50 mM HEPES, pH 7.5, 0.005% Tween20, 0.1% BSA, 50 mM NaCl, 3 nM Eu-labeled anti-His6 antibody, 21 nM streptavidin-allophycocyanin) were added. After minutes incubation at 30° C., plates were measured in a Perkin Elmer EnVision multilabel reader.
(§3) Test compounds were dissolved in DMSO (10 mM) and transferred into 1.4 mL flat bottom or V-shaped Matrix tubes carrying a unique 2D matrix. The stock solutions were stored at […] if not used immediately. For the test procedure the vials were defrosted and identified by a scanner whereby a working sheet was generated that guided the subsequent working steps. Compound dilutions were made in 96 well plates. This format enabled the assay of maximally […] at 8 concentrations (single points) including 4 reference compounds, if desired (known BET inhibitors from the prior art, for this and other assays of the type disclosed herein). The dilution protocol included the production of “pre-dilution plates”, “master plates” and “assay plates”.
(§4) Polypropylene 96-well plates were used as pre-dilution plates. […] All dilution steps were done on a HamiltonSTAR robot.
(§5) 30 μL of individual compound dilutions including standard compound and controls of the 4 “pre-dilution plates” were transferred into a 384-well “master plate” including the following concentrations 10000, […], 1000, 300, 100, 30, 10 and 3 μM, respectively in 90% of DMSO.
(§6) Identical “assay plates” were then prepared by pipetting 50 nL each of compound dilutions of the “master plates” into 384-well “assay plates” by means of a HummingBird 384-channel dispenser. These plates were used directly for the assay which was performed in a total volume of 13.55 μL.

His-Brd2(60-472) = His-Brd2(60-472) (Homo sapiens (Human), UniProt P25440); assay: TR-FRET in-vitro binding assay for BRD2
Sequence of His-Brd2(60-472) (P25440 60-472): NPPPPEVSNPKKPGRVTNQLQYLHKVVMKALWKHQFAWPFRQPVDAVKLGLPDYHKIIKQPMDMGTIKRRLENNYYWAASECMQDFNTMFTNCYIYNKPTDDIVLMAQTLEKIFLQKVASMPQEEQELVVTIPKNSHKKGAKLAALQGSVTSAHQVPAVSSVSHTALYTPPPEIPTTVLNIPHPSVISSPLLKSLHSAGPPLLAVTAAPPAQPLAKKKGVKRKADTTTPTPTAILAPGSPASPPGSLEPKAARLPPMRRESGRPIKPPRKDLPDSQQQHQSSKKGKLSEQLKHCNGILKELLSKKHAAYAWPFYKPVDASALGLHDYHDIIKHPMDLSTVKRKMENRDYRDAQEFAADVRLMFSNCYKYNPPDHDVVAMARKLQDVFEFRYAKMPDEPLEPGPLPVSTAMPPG
Procedure: as §1, §2, §3, §4, §5, §6

His-Brd3(20-477) = His-Brd3(20-477) (Homo sapiens (Human), UniProt Q15059); assay: TR-FRET in-vitro binding assay for BRD3
Sequence of His-Brd3(20-477) (Q15059 20-477): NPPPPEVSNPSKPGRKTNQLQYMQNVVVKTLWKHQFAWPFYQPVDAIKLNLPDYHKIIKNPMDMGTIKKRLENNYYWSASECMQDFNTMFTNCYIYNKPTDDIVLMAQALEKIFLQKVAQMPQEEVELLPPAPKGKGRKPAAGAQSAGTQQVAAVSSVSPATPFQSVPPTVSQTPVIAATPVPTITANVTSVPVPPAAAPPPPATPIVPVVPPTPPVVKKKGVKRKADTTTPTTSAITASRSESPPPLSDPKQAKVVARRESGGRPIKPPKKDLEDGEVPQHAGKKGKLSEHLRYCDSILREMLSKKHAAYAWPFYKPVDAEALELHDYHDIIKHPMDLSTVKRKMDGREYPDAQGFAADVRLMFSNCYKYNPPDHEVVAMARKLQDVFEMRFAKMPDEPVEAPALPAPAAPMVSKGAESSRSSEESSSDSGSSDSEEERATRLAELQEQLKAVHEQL
Procedure: as §1, §2, §3, §4, §5, §6

[1] = molecular target: His-CREBBP (1081-1197) bromodomain (Homo sapiens (Human), UniProt Q92793); assay: AlphaScreen in-vitro binding assay for CREBBP
Sequence of His-CREBBP (1081-1197) bromodomain (Q92793 1081-1197): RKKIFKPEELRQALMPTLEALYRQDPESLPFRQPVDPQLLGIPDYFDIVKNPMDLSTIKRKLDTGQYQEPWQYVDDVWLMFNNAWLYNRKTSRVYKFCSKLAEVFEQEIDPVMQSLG
Procedure: AlphaScreen In-Vitro Binding Assay for CREBBP
In order to assess bromodomain selectivity, we set up a binding assay using the bromodomain encoded by the CREBBP gene. […] Reactions were incubated at 30° C. for 35 minutes. Subsequently 4.5 μL per well detection mix (50 mM HEPES, pH 7.5, 0.005% Tween20, 0.02% BSA, 150 mM NaCl, 45 μg/ml Ni-chelate acceptor beads, 45 μg/mL streptavidin-donor beads) (Perkin Elmer)) were added. After 60 minutes incubation at room temperature, plates were measured in a Perkin Elmer EnVision multilabel reader. IC50 values were determined from percent inhibition values at different compound concentrations by non-linear regression analysis.
as §3, §4
These plates were used directly for the assay which was performed in a total volume of 13.55 μL.

Structure (SMILES)	IC50 (His-Brd4(44-477)) [nM]	IC50 (His-Brd2(60-472)) [nM]	IC50 (His-Brd3(20-477)) [nM]	IC50 [1] [nM]
Cc1cc(N2C(=O)c3nn(C4CC4)c(C(F)(F)F)c3C2c2ccc(Cl)cc2)cn(C)c1=O (stereo not drawn) [Example 43, 4-(4-chlorophenyl)-2-cyclopropyl-5-(1,5-dimethyl-6-oxo-1,6-dihydropyridin-3-yl)-3-(trifluoromethyl)-4,5-dihydropyrrolo[3,4-c]pyrazol-6(2H)-one]	120	100	110	660
Cn1cc(N2C(=O)c3nn(C4CC4)c(C(F)(F)F)c3C2c2ccc(Cl)cc2)cc(Cl)c1=O (stereo not drawn) [Example 40, 5-(5-chloro-1-methyl-6-oxo-1,6-dihydropyridin-3-yl)-4-(4-chlorophenyl)-2-cyclopropyl-3-(trifluoromethyl)-4,5-dihydropyrrolo[3,4-c]pyrazol-6(2H)-one]	220	160	150	740
Cc1nn(C2CC2)c2c1[C@H](c1ccc(Cl)cc1)N(c1cc(C)c(=O)n(C)c1)C2=O [Example 48, (S)-4-(4-chlorophenyl)-1-cyclopropyl-5-(1,5-dimethyl-6-oxo-1,6-dihydropyridin-3-yl)-3-methyl-4,5-dihydropyrrolo[3,4-c]pyrazol-6(1H)-one]	> 6700	> 6700	> 6700	> 5100
CCn1nc(C)c2c1C(=O)N(c1cc(C)c3nnc(C)n3c1)[C@@H]2c1ccc(Cl)cc1F [Example 192, (S)-4-(4-chloro-2-fluorophenyl)-5-(3,8-dimethyl-[1,2,4]triazolo[4,3-a]pyridin-6-yl)-1-ethyl-3-methyl-4,5-dihydropyrrolo[3,4-c]pyrazol-6(1H)-one]	39	53	44	7100
Cc1[nH]nc2c1C(c1ccc(Cl)cc1)N(c1cc(Cl)c(=O)n(C)c1)C2=O (stereo not drawn) [Example 5, 5-(5-chloro-1-methyl-6-oxo-1,6-dihydropyridin-3-yl)-4-(4-chlorophenyl)-3-methyl-4,5-dihydropyrrolo[3,4-c]pyrazol-6(2H)-one]	360	730	370	5600
CC(C)n1cc2c(n1)C(=O)N(c1cc(Cl)c(=O)n(C)c1)C2c1ccc(Cl)cc1 (stereo not drawn) [Example 42, 5-(5-chloro-1-methyl-6-oxo-1,6-dihydropyridin-3-yl)-4-(4-chlorophenyl)-2-isopropyl-4,5-dihydropyrrolo[3,4-c]pyrazol-6(2H)-one]	100	91	89	450
Cc1nn(C2CC2)c2c1[C@@H](c1ccc(Cl)cc1F)N(c1cc(C)c3nnc(C)n3c1)C2=O [Example 190, (S)-4-(4-chloro-2-fluorophenyl)-1-cyclopropyl-5-(3,8-dimethyl-[1,2,4]triazolo[4,3-a]pyridin-6-yl)-3-methyl-4,5-dihydropyrrolo[3,4-c]pyrazol-6(1H)-one]	22	28	25	12000
Cc1c2c(nn1C)C(=O)N(c1cc(Cl)c(=O)n(C)c1)C2c1ccc(Cl)cc1 (stereo not drawn) [Example 6, 5-(5-chloro-1-methyl-6-oxo-1,6-dihydropyridin-3-yl)-4-(4-chlorophenyl)-2,3-dimethyl-4,5-dihydropyrrolo[3,4-c]pyrazol-6(2H)-one]	190	350	180	3500
Cc1cc(N2C(=O)c3nn(C(C)C)cc3C2c2ccc(Cl)cc2)cn(C)c1=O (stereo not drawn) [Example 41, 4-(4-chlorophenyl)-5-(1,5-dimethyl-6-oxo-1,6-dihydropyridin-3-yl)-2-isopropyl-4,5-dihydropyrrolo[3,4-c]pyrazol-6(2H)-one]	96	75	85	380
Cc1noc2ccc(N3C(=O)c4nn(C)c(C)c4C3c3ccc(Cl)cc3)cc12 (stereo not drawn) [Example 33, 4-(4-chlorophenyl)-2,3-dimethyl-5-(3-methylbenzo[d]isoxazol-5-yl)-4,5-dihydropyrrolo[3,4-c]pyrazol-6(2H)-one]	700	1200	920	> 37000
Cc1nn(C2CC2)c2c1C(c1ccc(Cl)cc1)N(c1cc(Cl)c(=O)n(C)c1)C2=O (racemic) [Example 24, 5-(5-chloro-1-methyl-6-oxo-1,6-dihydropyridin-3-yl)-4-(4-chlorophenyl)-1-cyclopropyl-3-methyl-4,5-dihydropyrrolo[3,4-c]pyrazol-6(1H)-one]	150	230	150	5900
Cc1cc(N2C(=O)c3nn(C4CC4)c(C)c3C2c2ccc(Cl)cc2)cn(C)c1=O (stereo not drawn) [Example 20, 4-(4-chlorophenyl)-2-cyclopropyl-5-(1,5-dimethyl-6-oxo-1,6-dihydropyridin-3-yl)-3-methyl-4,5-dihydropyrrolo[3,4-c]pyrazol-6(2H)-one]	88	130	77	1100
Cc1cc(N2C(=O)c3nn(C)c(C)c3C2c2ccc(Cl)cc2)cn(C)c1=O (stereo not drawn) [Example 28, 4-(4-chlorophenyl)-5-(1,5-dimethyl-6-oxo-1,6-dihydropyridin-3-yl)-2,3-dimethyl-4,5-dihydropyrrolo[3,4-c]pyrazol-6(2H)-one]	140	320	160	3300
CC(C)n1ncc2c1C(=O)N(c1cc(Cl)c(=O)n(C)c1)C2c1ccc(Cl)cc1 (stereo not drawn) [Example 38, 5-(5-chloro-1-methyl-6-oxo-1,6-dihydropyridin-3-yl)-4-(4-chlorophenyl)-1-isopropyl-4,5-dihydropyrrolo[3,4-c]pyrazol-6(1H)-one]	62	49	76	1900
CCn1nc(C)c2c1C(=O)N(c1cc(C)c3nnc(C)n3c1)[C@@H]2c1ccc(F)cc1F [Example 191, (S)-4-(2,4-difluorophenyl)-5-(3,8-dimethyl-[1,2,4]triazolo[4,3-a]pyridin-6-yl)-1-ethyl-3-methyl-4,5-dihydropyrrolo[3,4-c]pyrazol-6(1H)-one]	25	69	31	10000
Cc1nn(C2CC2)c2c1[C@@H](c1ccc(F)cc1F)N(c1cc(C)c3nnc(C)n3c1)C2=O [Example 188, (S)-1-cyclopropyl-4-(2,4-difluorophenyl)-5-(3,8-dimethyl-[1,2,4]triazolo[4,3-a]pyridin-6-yl)-3-methyl-4,5-dihydropyrrolo[3,4-c]pyrazol-6(1H)-one]	31	41	40	19000
Cc1nn(C2CC2)c2c1C(c1ccc(Cl)cc1)N(c1cc(C)c3nnn(C)c3c1)C2=O (stereo not drawn) [Example 85, 4-(4-chlorophenol)-1-cyclopropyl-5-(1,4-dimethyl-1H-benzo[d][1,2,3]triazol-6-yl)-3-methyl-4,5-dihydropyrrolo[3,4-c]pyrazol-6(1H)-one]	14	24	16	8300
Cn1cc(N2C(=O)c3nn(C4CC4)cc3C2c2ccc(Cl)cc2)cc(Cl)c1=O (stereo not drawn) [Example 37, 5-(5-chloro-1-methyl-6-oxo-1,6-dihydropyridin-3-yl)-4-(4-chlorophenyl)-2-cyclopropyl-4,5-dihydropyrrolo[3,4-c]pyrazol-6(2H)-one]	170	140	140	1200
